The values below come from US5709816A, “Singlet oxygen quenchers and external compositions containing the same” (Kao Corporation, priority 1899, dated 1998).

The subject of assay [1] is skin of hairless mice. Kind of assay: Analysis of wrinkles in hairless mice (image analysis of skin replicas). Type of assay: in vivo, hairless mouse (HR/ICR). Conditions: 5 wt. % in ethanol, 80 μl; UV-B sixteen weeks; shadow area of skin replicas, 30°; control (ethanol) 6.46 ± 0.68. As for the experimental part: (§1) To each hairless mouse (HR/ICR, 6 weeks old when the test started), a test substance (5 wt. %, in ethanol) was applied. (80 μl). Approximately 10 minutes later, UV-B was irradiated thereto using 6 bulbs of health lamps (SL20-SLE, Toshiba) so that the dose per irradiation was not greater than 1 MED. Irradiation was repeated five times per week over sixteen weeks. While the irradiation energy was measured using a UV-radiometer (UVR-305/S65D, Tokyo Optical K.K.) so that the dose per irradiation was not greater than 1 MED, energy was irradiated at an intensity of 0.28 mW/cm^2, with the total dose. 100 mJ/cm^2. As a control, a case where only ethanol was applied was similarly tested in a manner performed on the test substances.
In order to analyze the wrinkles formed in the above step (1) in detail, replicas of different skin areas (3 replicas per mouse) each having a round shape with a diameter of 1 cm were obtained using a hydrophilic exaflex, hydrophilic vinyl silicone imaging agent. Each replica was placed horizontally and lightened from an angle of 30°. The area of shadows formed by wrinkles was analyzed as the area ratio using an image analyzing apparatus.

Assay [2] concerns skin of hairless mice. Kind of assay: Inhibition of wrinkle formation in hairless mice (visual wrinkle index). It counts as in vivo, hairless mouse (HR/ICR). Conditions: 5 wt. % in ethanol, 80 μl; UV-B five times per week, sixteen weeks; scale 1 (no wrinkles) to 4; control (ethanol) 3.78 ± 0.08. As for the experimental part: (1) Inhibition of wrinkle formation in hairless mice.
as §1
After completion of the testing, the level of wrinkle formation was visually determined using the following standards (wrinkle indices).
1: No wrinkles are formed
2: Small amounts of wrinkles are formed
3: Moderate amounts of wrinkles are formed
4: Considerable amounts of wrinkles are formed

On to `CCCCN(Cc1ccco1)Cc1ccco1` [Compound (22), N,N-bisfurfurylbutylamine], for which the “Area ratio of image analysis” value with skin of hairless mice [1] was found to be 3.37 ± 0.30%. The molecule also had a Wrinkle index with skin of hairless mice [2] of 2.34 ± 0.16.
For `CCCCC(CC)CN(Cc1ccco1)Cc1ccco1` (stereo not shown) [Compound (23), N,N-bisfurfuryl-2-ethylhexylamine], in that order: 3.23 ± 0.18% and 2.17 ± 0.05.
`CCOC(=O)CN(Cc1ccco1)Cc1ccco1` [Compound (24), ethyl N,N-bisfurfurylglycine]: in the assay on skin of hairless mice [1], the “Area ratio of image analysis” value turned out to be 3.27 ± 0.29%. Moreover, in the assay on skin of hairless mice [2], the Wrinkle index came to 2.56 ± 0.08.
For `Cc1ccc(CN(Cc2ccc(C)o2)c2ccccc2)o1` [Compound (25), N,N-bis(5-methylfurfuryl)phenylamine], the “Area ratio of image analysis” value in the assay with skin of hairless mice [1] was 3.32 ± 0.21%. The molecule also yielded a Wrinkle index in the assay on skin of hairless mice [2] of 2.35 ± 0.34.
For `COc1ccc(N(Cc2ccc(C)o2)Cc2ccc(C)o2)cc1` [Compound (26), N,N-bis(5-methylfurfuryl)-p-methoxyphenylamine], in that order: 3.69 ± 0.59% and 2.44 ± 0.33.
For `COc1ccc(N(Cc2ccc(C)o2)Cc2ccc(C)o2)cc1OC` [Compound (27), N,N-bis(5-methylfurfuryl)-3,4-dimethoxyphenylamine], in that order: 3.73 ± 0.29% and 2.22 ± 0.17.
Regarding `COc1cc(N(Cc2ccc(C)o2)Cc2ccc(C)o2)cc(OC)c1OC` [Compound (28), N,N-bis(5-methylfurfuryl)-3,4,5-trimethoxyphenylamine], the “Area ratio of image analysis” value with skin of hairless mice [1] was found to be 3.24 ± 0.33%. Also, the Wrinkle index in the assay with skin of hairless mice [2] worked out at 2.43 ± 0.06.
As for `Cc1ccc(N(Cc2ccc(C)o2)Cc2ccc(C)o2)cc1` [Compound (29), N,N-bis(5-methylfurfuyl)-4-methylphenylamine], in the assay with skin of hairless mice [1], the “Area ratio of image analysis” value was 3.64 ± 0.12%. In the assay on skin of hairless mice [2], this molecule yielded a Wrinkle index of 2.28 ± 0.06.
Regarding `Cc1ccc(CN(Cc2ccc(C)o2)c2ccccc2C)o1` [Compound (30), N,N-bis(5-methylfurfuryl)-2-methylphenylamine], the “Area ratio of image analysis” value in the assay on skin of hairless mice [1] worked out at 3.39 ± 0.47%. Moreover, the Wrinkle index with skin of hairless mice [2] is 2.51 ± 0.43.
For `COc1ccc(N(Cc2ccco2)Cc2ccc(C)o2)cc1` [Compound (31), N-furfuryl-N-(S-methylfurfuryl)-4-methoxyphenylamine], in the assay with skin of hairless mice [1], the “Area ratio of image analysis” value is on record as 3.30 ± 0.17%. Further, the Wrinkle index with skin of hairless mice [2] came to 2.49 ± 0.20.
The like results for `CC(=O)Oc1c(C)c(C)c2c(c1C)CCC(C)(CCCC(C)CCCC(C)CCCC(C)C)O2` (stereo not drawn) [α-Tocopheryl acetate, reference compound] were, in that order, 4.67 ± 0.48% and 3.28 ± 0.23.
